In patent publication US20240181022A1, “AMURINS LYSINS, AND LYSIN-ANTIMICROBIAL PEPTIDE (AMP) CONSTRUCTS ACTIVE AGAINST GRAM-NEGATIVE BACTERIA” (priority 2021, published 2024):
Where two headings read alike, the source gives them in different places. Where no end group is shown, it is not given here.

Legend:
[1] = tested on: A. dolens; experiment: MIC by broth microdilution against A. dolens; format: cell-based, Achromobacter dolens; details: A. dolens isolates
Protocol: (§1) MIC values were determined using a modification of the standard broth microdilution reference method defined by the Clinical and Laboratory Standards Institute (CLSI), CLSL. 2015. Methods for Dilution Antimicrobial Susceptibility Tests for Bacteria That Grow Aerobically; Approved Standard-10th Edition. Clinical and Laboratory Standards Institute, Wayne, PA. The modification was based on the replacement of Mueller Hinton Broth with either CAA media (with and without NaCl) or CAA supplemented with 2.5% human serum. MIC is the minimum concentration of peptide sufficient to suppress at least 80% of the bacterial growth compared to control.
(§2) Based on these nine most prevalent strains, direct lytic agents, including GN370, AM1, AM2, and AM3, were evaluated against various isolates from each of the 9 strains. MICs and MBECs (Example 3) were determined, and a sputum inhibition test was conducted, as described below in Example 5.
(§3) The MICs for were determined as described below using the broth microdilution method for meropenem, GN370, AM1, AM2, and AM3. The results are shown below in Tables 8-12.

[2] = tested on: P. aeruginosa; experiment: Time-kill assay in cystic fibrosis patient sputum, P. aeruginosa; format: cell-based, Pseudomonas aeruginosa
Source text: (§4) Sputum from 5 cystic fibrosis patients was pooled. The resulting mixture was not filtered, as it was very dense and not amenable to sterilization by filtration. Sputum is known to be a complex mixture of DNA, carbohydrates, and lipids ([…], 2016). As used herein, the term “sputum” refers to the mucus present in the respiratory tract of an animal, such as a human. Sputum may increase in thickness due to the irritation or infection, including bacterial infection, and in some instances, may be expelled by the animal while coughing. In certain instances, cystic fibrosis may be characterized by the presence of a thick, sticky mucus or sputum present in the lungs of cystic fibrosis patients. The activity of GN370, AM1, AM2, AM3, and meropenem was determined in the sputum using a time-kill assay format as disclosed in Zhang et al., Antimicrobial peptide therapeutics for cystic fibrosis, Antimicrobial Agents Chemother. 2005; 49(7):2921-2927. […] Untreated controls were included in addition to pretreatment plating (t=0) for a baseline CFU determination. Activity was also determined in the absence of sputum for comparison to activity observed in the presence of sputum.

[3] = tested on: P. aeruginosa
[4] = tested on: A. ruhlandii; experiment: MIC by broth microdilution against A. ruhlandii; format: cell-based, Achromobacter ruhlandii; details: A. ruhlandii isolates
Protocol: as §1, §2, §3

[5] = tested on: M. abscessus; experiment: MIC against MDR M. abscessus isolates; format: cell-based, Mycobacterium abscessus; details: 7 days; for MIC: AST media (CAAT)
[6] = tested on: S. maltophilia
[7] = tested on: B. cenocepacia; format: cell-based, Burkholderia cenocepacia
Protocol: (§5) The MBEC (after 2-hour treatments) was determined as described in Jones and Wozniak, PsI Produced by Mucoid Pseudomonas aeruginosa Contributes to the Establishment of Biofilms and Immune Evasion, Am. Soc. Microbiol. 2017, 8(3):e00864-17. Meropenem and tobramycin were included as controls and were both poorly active, with MBEC90 values of >256 μg/mL (data not shown).

[8] = tested on: P. aeruginosa; experiment: Serial passage resistance development study, P. aeruginosa; format: cell-based, Pseudomonas aeruginosa; details: P. aeruginosa strain CFS 1292, Day 28
[9] = tested on: A. dolens; format: cell-based, Achromobacter dolens
Protocol: as §5

[10] = tested on: M. avium; experiment: MIC against M. avium; format: cell-based, Mycobacterium avium; details: M. avium (ATCC 700898); CAAT media
[11] = tested on: A. xylosoxidans; format: cell-based, Achromobacter xylosoxidans
Protocol: as §1, §3
The activity of GN370 and AM1 was evaluated against various bacterial isolates, including mucoid and α-hemolytic isolates of P. aeruginosa, MDR isolates, and carbapenem-resistant isolates.

[12] = tested on: M. tuberculosis; format: cell-based, Mycobacterium tuberculosis
[13] = tested on: A. xylosoxidans; experiment: Time-kill assay in cystic fibrosis patient sputum, A. xylosoxidans; format: cell-based, Achromobacter xylosoxidans
Source text: as §4

[14] = tested on: M. scrofulaceum; experiment: MIC against M. scrofulaceum; format: cell-based, Mycobacterium scrofulaceum; details: M. scrofulaceum (ATCC 19981); CAAT media
[15] = tested on: B. cenocepacia; experiment: MIC by broth microdilution against B. cenocepacia; format: cell-based, Burkholderia cenocepacia; details: B. cenocepacia isolates
Protocol: as §1, §2, §3

“MRLKMARRRYRLPRRRSRRLFSRTALRMHPRNRLRRIMRGGIRF [AM1]” was tested, and the MIC50 [1] was 1 µg/mL, the MIC90 [1] was 2 µg/mL and the “MIC Range” value ([1]; in µg/mL) was 0.06-4. For the same sequence, the “effect of sputum on antibacterial activity” value ([2]; 10% CF sputum vs no sputum) was “not inhibited”, the “Log10 CFU/mL of sputum” value ([2]; absence of sputum, 1 hr) was 2.3 Log10 CFU/mL of sputum and the “Log10 CFU/mL of sputum” value ([2]; absence of sputum, 3 hr) was 2.3 Log10 CFU/mL of sputum. For the same sequence, the “Log10 CFU/mL of sputum” value ([2]; absence of sputum, 24 hr) was 2.3 Log10 CFU/mL of sputum, the “Log10 CFU/mL of sputum” value ([2]; presence of 10% sputum, 1 hr) was 2.3 Log10 CFU/mL of sputum and the “Log10 CFU/mL of sputum” value ([2]; presence of 10% sputum, 3 hr) was 2.3 Log10 CFU/mL of sputum. For the same sequence, the “Log10 CFU/mL of sputum” value ([2]; presence of 10% sputum, 24 hr) was 2.3 Log10 CFU/mL of sputum, the “killing by 1 hour, maintained by 24 hours” value ([2]; time-kill) was “complete killing” and the MBEC50 [3] was 0.5 µg/mL. For the same sequence, the MBEC90 [3] was 1 µg/mL, the “MBEC Range” value [3] was 0.064 to 2 µg/mL and the “antibiofilm activity (MBEC) against P. aeruginosa” value ([3]; 2-hour treatments) was “highly active”. The MIC50 [4] was 1 µg/mL, the MIC90 [4] was 4 µg/mL and the “MIC Range” value ([4]; in µg/mL) was 0.125-8. The “activity (MIC) against M. abscessus” value ([5]; 5 clinical MDR strains and 1 ATCC strain, CAAT) was “highly active”, the MIC ([5]; M. abscessus strain BK51402) was 1 µg/mL and the MIC ([5]; M. abscessus strain BK51403 (ATCC 19977)) was 2 µg/mL. The MIC ([5]; M. abscessus strain BK51408) was 4 µg/mL, the MIC ([5]; M. abscessus strain BK55096) was 1 µg/mL and the MIC ([5]; M. abscessus strain BK55691) was 1 µg/mL. The MIC ([5]; M. abscessus strain BK58156) was 2 µg/mL, the “AM1 MIC50” value [6] was 0.5 µg/mL and the “AM1 MIC90” value [6] was 1 µg/mL. For the same sequence, the MIC50 [6] was 0.5 µg/mL, the MIC90 [6] was 1 µg/mL and the “MIC Range” value ([6]; MDR S. maltophilia isolates (n = 8), in µg/mL) was 0.5-1. The MIC50 ([6]; S. maltophilia isolates) was 0.5 µg/mL, the MIC90 ([6]; S. maltophilia isolates) was 1 µg/mL and the “MIC Range” value ([6]; S. maltophilia isolates, in µg/mL) was 0.016-1. The MIC ([6]; S. maltophilia test organism of the sputum time-kill assay) was “AM1 (MIC = 0.5)”, the “activity (MIC) against S. maltophilia isolates” value ([6]; all tested isolates, Tables 8-12) was “highly active” and the “AM1 MIC Range” value ([6]; carbapenem-resistant S. maltophilia isolates (n = 23), in µg/mL) was 0.016-1. For the same sequence, the MBEC50 [7] was 16 µg/mL, the MBEC90 [7] was 32 µg/mL and the “MBEC Range” value [7] was 2 to 32 µg/mL. The “change in MIC over serial passage” value [8] was “no significant changes”, the MBEC50 [9] was 2 µg/mL and the MBEC90 [9] was 4 µg/mL. The “MBEC Range” value [9] was 1 to 8 µg/mL, the MIC [10] was 1 Tg/mL and the “AM1 MIC50” value [11] was 0.5 µg/mL. The “AM1 MIC90” value [11] was 1 µg/mL, the MIC50 [11] was 1 µg/mL and the MIC90 [11] was 4 µg/mL. The MIC50 ([11]; A. xylosoxidans isolates) was 0.5 µg/mL, the MIC90 ([11]; A. xylosoxidans isolates) was 2 µg/mL and the “MIC Range” value ([11]; A. xylosoxidans isolates, in µg/mL) was 0.016-4. For the same sequence, the MIC ([11]; A. xylosoxidans test organism of the sputum time-kill assay) was “AM1 (MIC = 0.5)”, the “MIC Range” value ([11]; MDR A. xylosoxidans isolates (n = 14), in µg/mL) was 0.5-4 and the “AM1 MIC Range” value ([11]; carbapenem-resistant A. xylosoxidans isolates (n = 7), in µg/mL) was 0.06225-1. The MIC ([12]; M. tuberculosis (ATCC 35817), (ADC, T) media) was 8 µg/mL, the MIC ([12]; M. tuberculosis strain TN8109_LB (MDR), 7H9 broth, 20 days) was 4 µg/mL and the MIC ([12]; M. tuberculosis strain TN8562_M33 (susc), 7H9 broth, 20 days) was 4 µg/mL. For the same sequence, the MIC ([12]; M. tuberculosis strain TN10525_LL (MDR), 7H9 broth, 20 days) was 8 µg/mL, the MIC ([12]; M. tuberculosis strain TN10571_KY (MDR), 7H9 broth, 20 days) was 2 µg/mL and the MIC ([12]; M. tuberculosis strain TN12657_KQ15 (IS), 7H9 broth, 20 days) was 16 µg/mL. It also gave an MIC ([12]; M. tuberculosis strain TN13923_HD17 (susc), 7H9 broth, 20 days) of 16 µg/mL, an MIC ([12]; M. tuberculosis strain TN18349_W738 (susc), 7H9 broth, 20 days) of 0.5 µg/mL and an MIC ([12]; M. tuberculosis strain TN34503_001 (susc), 7H9 broth, 20 days) of 0.5 µg/mL. For the same sequence, the “effect of sputum on antibacterial activity” value ([13]; 10% CF sputum vs no sputum) was “none of GN370, AM1, AM2, and AM3 was inhibited”, the “Log10 CFU/mL of sputum” value ([13]; absence of sputum, 1 hr) was 2.3 Log10 CFU/mL of sputum and the “Log10 CFU/mL of sputum” value ([13]; absence of sputum, 3 hr) was 2.3 Log10 CFU/mL of sputum. The “Log10 CFU/mL of sputum” value ([13]; absence of sputum, 24 hr) was 2.3 Log10 CFU/mL of sputum, the “Log10 CFU/mL of sputum” value ([13]; presence of 10% sputum, 1 hr) was 2.3 Log10 CFU/mL of sputum and the “Log10 CFU/mL of sputum” value ([13]; presence of 10% sputum, 3 hr) was 2.3 Log10 CFU/mL of sputum. The “Log10 CFU/mL of sputum” value ([13]; presence of 10% sputum, 24 hr) was 2.3 Log10 CFU/mL of sputum, the “killing by 1 hour, maintained at 24 hours” value ([13]; time-kill) was “complete killing” and the MIC [14] was 0.5 µg/mL. The MIC50 [15] was over 128 µg/mL and the MIC90 [15] was over 128 µg/mL.
